The subject of experiment [1] is carrageenan-induced hind paw swelling. The experiment in a line: Carrageenan-induced hind paw swelling. The experiment is classed as in vivo, mice. To be noted: 150 mg/kg i.p. 30 min prior to carrageenan; for swelling reduction compared to control: control saline only. As for the experimental part:
The above new five peptides were examined for anti-inflammatory activity, and their activity was compared to that of peptide CB3. Male ICR mice received an i.p. administration of each of the tested peptide (150 mg/kg) 30 min prior to the injection of carrageenan into the sub-plantar area of both of the animal's hind paws. Carrageenan was dissolved in water at concentration of 3 mg/ml and injected at a volume of 50 μl. Hind paw thickness was measured by Mitutoyo® micrometer before carrageenan injection and afterward at intervals of 1 hour between each measurement. Swelling was calculated as the difference between the thickness of the hind paw measured at each time interval and its size at time 0 (before carrageenan injection). n=6 foot pads (3 animals) for each group.

In a further experiment the test system is carnitine. The experiment in a line: Carnitine levels in mouse tissues. Format: in vivo, mice. The settings on record: 250 mg/kg i.p. for 5 consecutive days. As to the method: Male ICR mice were injected i.p. with 250 mg/kg DY-65 for 5 consecutive days. Half an hour after the last injection lung, heart, skeletal muscle (femural), brain, liver, kidney and blood were removed, homogenized (100 mg tissue in 200 μl distilled water), centrifuged and filtrated through 30K Microcon® filter. Carnitine analysis was carried out by a commercial kit (BioVision, catalogue number K642-100). n=4 for each group.

For experiment [2], the system named is alanine aminotransferase (ALT) in plasma / liver necrosis. The experiment in a line: Concanavalin A-induced liver inflammation in C57BL/6 mice. Format: in vivo. As to the method:
Six groups of C57BL/6 female mice (7-8 weeks old) containing 6 mice in each group were injected i.p. with different peptide on days −3, −2, −1 at a dose of 50 mg/kg or with PBS alone. On day zero all the mice were injected i.v. with 250 μg/mouse of Con A and 45 min. later they were injected i.p. with 150 mg/kg of each peptide or PBS.
Eight hours after Con A injection mice were bled into heparinized tubes (approx. 150 ul of blood from each mouse) and the levels of alanine aminotransferase (ALT) was measured in the plasma.
One day later the mice were sacrificed and their livers were placed in 4% formalin and sent for pathological examination.
Next, peptide DY-66 was examined and compared to N-acetylcysteine (NAC), CB3 and CB4. The compounds were tested according to the procedure described above. ConA dose was 180 μg/mouse.
FIG. 8 presents the change in ALT levels (%) for each of the tested compounds compared to PBS treatment (i.e., the ratio between ALT levels in samples obtained from mice treated with a tested compound and ALT levels in samples obtained from PBS-treated mice)

The next experiment concerns ROS. The experiment is described as follows: ROS levels in C57Bl/6 mice after LPS injection. The experiment is classed as in vivo. To be noted: 6 h after LPS. As to the method:
C57BL/6 female mice (7-8 weeks old) were injected i.p. with the peptide or PBS on days −3, −2, −1 at a dose of 50 mg/kg or with PBS alone (6 mice in each group). On day zero all the mice were injected i.p. with 200 μg/mouse of LPS and 45 min. later they were injected i.p. with 150 mg/kg of the peptide. Another group of 3 mice served as normal untreated mice. […]

Experiment [3] is described as follows: Metal chelation: ferric ion binding by mass spectra (ESI). The settings on record: 0.83 mM peptide, 1.66 mM FeCL3, 1 hour room temperature. As for the experimental part:
All five peptides were examined for their ability to bind copper and ferric ions. 0.83 mM of each peptide were mixed with 1.66 mM of either FeCL3 or CuSO4. The mixtures were incubated for 1 hour at room temperature and further kept at ° 4 C until analysis. Samples were analyzed by mass spectra (ESI).

A further experiment concerns NF-κB. The experiment in a line: Nuclear translocation of NF-κB in lung, zymosan-induced inflammation. To be noted: lung tissue, 24 hours after zymosan; i.p. dosing as Example 3; p<0.05. The experiment is classed as in vivo, mice. As to the method:
Male BALB/c mice were randomly allocated into the following experimental groups:
The peptides were administered by an intraperitoneal (i.p.) route of administration as described in Example 3.
The peptides were formulated in D5W as described in Example 3. The vehicle control was D5W.
At 24 hours after administration of zymosan, animals were euthanized and assessed for inflammation by an NF-κB analysis of lung tissue.
Tissues were homogenized and nuclear extracts prepared via centrifugation. […]

The subject of experiment [4] is granulocytes at the peritoneal lavages. The experiment in a line: Ovalbumin-induced hypersensitivity: percentage of granulocytes in peritoneal lavage (FACS). The experiment is classed as in vivo, mice. The settings on record: 125 mg/kg; Mann-Whitney with Bonferroni correction, p<=0.0125. As for the experimental part: Hypersensitivity was induced as described in Example 5. The mice were treated according to the above protocol with PBS alone (“PBS”, no OVA and no Alum), OVA (“OVA”), OVA+CB3 104 mg/kg, OVA+DY-66 83 mg/kg and OVA+DY-66 125 mg/kg. In all groups, 9 mice were used except for OVA+DY-66 83 mg/kg, where 10 mice were used.
At day 16 the animals were sacrificed, the peritoneum was washed with 4-5 ml of sterile PBS, centrifuged and the cells were re-suspended in sterile PBS containing FCS 2%.
Percentage of granulocytes at the peritoneal lavages were measured by the use of FACS machine analysis of all cells during 10 second flow, followed by a careful analysis of the FACS dot plots.

Where [5] appears, read: Con A 250 μg/mouse i.v., 8 h after Con A.

Data on two substances can be found in patent US8802635B2, “Antioxidant, anti-inflammatory, anti-radiation, metal chelating compounds and uses thereof” (Oneday—Biotech And Pharma Ltd., priority 2011, dated 2014).

Non-standard residues stand in square brackets, D forms with d. βAla = NCCC(=O)O

“N-acetyl-Cys-Lys-Met-Cys-NH2 (Ac-CKMC-NH2; cysteine pairing not given here) [DY-65]”: the “swelling reduction compared to control” value is listed as 40% in experiment [1] (after 1 hour), 27% in experiment [1] (after 2 hours) and 34% in experiment [1] (after 3 hours). For the same substance, the “increase in the level of carnitine in other tissues” value in the experiment on carnitine is on record as “about 70%”. In the experiment on carnitine (significant elevation), the “increase in the level of carnitine in some tissues” value is “about 150%”. The mice found dead in experiment [2] (24 hours post Con A 250 μg, 6 mice in each group) came to 1.

On to “N-acetyl-Cys-βAla-His-Cys-NH2 (Ac-C[βAla]HC-NH2; cysteine pairing not given here) [DY-66]”, for which, in the experiment with ROS (50 mg/kg i.p. days -3,-2,-1 and 150 mg/kg 45 min after LPS), the “ROS levels in platelets and RBCs compared to PBS-treated mice (in words)” value is listed as “significant reduction in ROS levels”. The “ROS level in platelets, % of the level in PBS-treated mice” value in the experiment with ROS (p<0.005) is recorded as “approximately 55%”. The “ROS level in RBCs, % of the level in PBS-treated mice” value with ROS (p<0.05) is “approximately 75%”. The “FeCl binding (in words)” value in experiment [3] is reported as “binding was observed”. The “hind paw swelling compared to control (in words)” value in experiment [1] is given as “Reduced swelling compared to control”. In the experiment with NF-κB, the “inhibition of the increase in nuclear p65 translocation” value is “ca. 80%”. For the same substance, in experiment [4], the “difference in percentage of granulocytes (medians) between OVA and OVA+peptide” value is on record as “highly significant”. The “necrotic area in liver, histo-pathological report (in words)” value in experiment [2] (Con A 250 μg/mouse i.v.) was “significant (p=0.011) decrease in necrotic area”. In addition, in experiment [2] (setting [5]), the “reduction of ALT average compared to PBS-treated mice” value is on record as 69% and the “reduction of ALT median compared to PBS-treated mice” value is 75%. Moreover, in experiment [2] (ConA dose 180 μg/mouse), the “reduction of ALT average compared to PBS-treated mice” value is on record as 71% and the “reduction of ALT median compared to PBS-treated mice” value is listed as 89%.
